Assay results reported in patent US9493420B2, “Quinoline derivatives and uses thereof” (Portland State University, priority 2005, dated 2016).

Key:
[1] = target: T1, recombinant human serotonin (hSERT) transporter (Homo sapiens, UniProt P31645); test: Inhibition of [3H]neurotransmitter uptake, hSERT; format: cell-based
T1 construct: expressed in transfected cells; host or cells: HEK cells expressing hSERT
Experimental: Selected RCQs were tested for inhibition of [^3H]neurotransmitter uptake by the recombinant human serotonin (hSERT), dopamine (HEK-hDAT), and norepinephrine (hNET) transporters by a modification of the method of Eshleman et al. (J. Pharmacol. Exp. Ther., 289(2):877-885, 1999). HEK-hDAT, hSERT, and -hNET expressing cells were grown on tissue culture dishes. After removing the medium and washing the plates with Ca^2+-, Mg^2+-free phosphate buffered saline (PBS), fresh medium was added and the plates were placed in a 25° C. water bath for 5 minutes. Cells were gently lifted from the plates and cell clusters separated by trituration. 50 μL aliquots of the suspended cells were added to assay tubes containing drugs and Krebs-HEPES assay buffer in a final volume of 0.5 mL.
Competition experiments were conducted in triplicate. After a 10 minute preincubation period at 25° C., [^3H]neurotransmitter (20 nM final concentration; [^3H]DA, [^3H]5-HT, or [^3H]NE) were added, and the mixtures incubated for 10 minutes. Reactions were terminated by filtration through Wallac filtermat A filters (presoaked in 0.05% polyethylenimine), using a Tomtec cell harvester. Scintillation fluid was added to each filtered spot, and radioactivity remaining on the filters determined using a Wallac 1205 Betaplate scintillation counter.
Specific uptake was defined as the difference in uptake observed in the absence and presence of 5 μM mazindol (hDAT and hNET) or 5 μM imipramine (hSERT). Inhibition of uptake was determined by non-linear regression using Prism software.

P. chabaudi parasites = test: 4-day suppressive test in infected mice; format: in vivo; settings: 64 mg/kg oral gavage once per day for four days; male CF-1 mice; by day 4
Excerpt: Antimalarial compounds can also be tested for efficacy in vivo. One non-limiting exemplary method for performing such testing is the 4-day suppressive test (Peters, Ann. Trop. Med. Parasitol., 69(2):155-171, 1975). Briefly, such test involves collecting P. chabaudi (Mackinnon and Read, Philos. Trans. R. Soc. Lond. B Biol. Sci., 359:965-986, 2004; Mackinnon et al., Exp. Parasitol., 101 (2-3):121-128, 2002) from a donor animal harboring ˜20% parasitemia. Male CF-1 mice at 4-5 weeks of age (˜20 g) are infected with ˜10^7 infected red blood cells via 100 μL tail vein injection and randomly sorted into groups of 4 mice each on day 0. One hour after infection, the mice receive the test agent via oral gavage, or by the intraperitoneal route (at approximately 1-10 times the in vitro IC50 values). Drugs are administered once daily for at least 4 days beginning at day 0. […] Efficacy of a tested compound in this bioassay is measured by inhibition of parasite growth as defined previously. […]
A variation of the 4-day suppressive test described by Peters (Ann. Trop. Med. Parasitol., 69(2):155-171, 1975) was used to test the in vivo effectiveness of RCQ_02 as a treatment for Plasmodium sp. infection. Briefly, P. chabaudi parasites (Mackinnon and Read, Philos. Trans. R. Soc. Lond. B Biol. Sci., 359:965-986, 2004) were collected from a donor animal harboring approximately 20% parasitemia. […]

Water solubility = format: physicochemical

T1 sequence (P31645 whole entry): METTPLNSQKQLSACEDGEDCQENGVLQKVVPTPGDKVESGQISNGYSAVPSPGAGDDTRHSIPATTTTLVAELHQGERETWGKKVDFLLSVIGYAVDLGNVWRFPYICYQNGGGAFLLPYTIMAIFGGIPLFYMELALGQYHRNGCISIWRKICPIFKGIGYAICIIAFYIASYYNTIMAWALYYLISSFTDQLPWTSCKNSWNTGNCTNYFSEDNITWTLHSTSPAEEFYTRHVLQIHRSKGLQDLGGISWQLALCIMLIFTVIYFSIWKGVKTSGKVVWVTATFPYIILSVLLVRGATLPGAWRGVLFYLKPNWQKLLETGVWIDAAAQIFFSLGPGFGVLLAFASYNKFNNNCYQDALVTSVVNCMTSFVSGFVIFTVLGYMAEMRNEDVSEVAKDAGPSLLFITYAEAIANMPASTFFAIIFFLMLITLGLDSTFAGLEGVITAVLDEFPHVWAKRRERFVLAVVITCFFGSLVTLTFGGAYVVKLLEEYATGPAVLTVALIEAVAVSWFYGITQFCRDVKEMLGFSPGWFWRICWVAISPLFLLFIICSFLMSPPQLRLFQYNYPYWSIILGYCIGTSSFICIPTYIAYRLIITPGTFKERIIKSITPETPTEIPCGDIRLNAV

CN(CCCNc1ccnc2cc(Cl)ccc12)CCCN1c2ccccc2CCc2ccccc21 [RCQ_02, N′-(7-Chloro-quinolin-4-yl)-N-[3-(10,11-dihydro-dibenzo[b,f]azepin-5-yl)-propyl]-N-methyl-propane-1,3-diamine]
IC50 [1]: 230 nM
cleared of parasites (P. chabaudi parasites): > 99%
water solubility (Water solubility): relatively low water solubility
